Data reported in ChEMBL document CHEMBL1201862, “PubChem BioAssay data set” (2004).
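48-hour exposure; five concentrations; linearly interpolated endpoints. At the GI50, growth is halved.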 Active and inactive are the calls of the source. Rule as the data show it: active = GI50 up to about 1.1 µM and inactive = higher.

Experiments:
Assay in all cases: NCI anticancer screen, dose series, 48 h
MDA-MB-435 = tested on: MDA-MB-435
NCI-H226 = tested on: NCI-H226
HCC 2998 = tested on: HCC 2998
Hs-578T = tested on: Hs-578T
BT-549 = tested on: BT-549
A549 = tested on: A549
OVCAR-4 = tested on: OVCAR-4
NCI-H23 = tested on: NCI-H23
SNB-75 = tested on: SNB-75
786-0 = tested on: 786-0
SK-OV-3 = tested on: SK-OV-3
SK-MEL-5 = tested on: SK-MEL-5
MOLT-4 = tested on: MOLT-4
SK-MEL-2 = tested on: SK-MEL-2
NCI-H460 = tested on: NCI-H460
EKVX = tested on: EKVX
TK-10 = tested on: TK-10
SF-268 = tested on: SF-268
MDA-N = tested on: MDA-N
SK-MEL-28 = tested on: SK-MEL-28

Structure (SMILES)	GI50 (MDA-MB-435)	GI50 (NCI-H226)	GI50 (HCC 2998)	GI50 (Hs-578T)	GI50 (BT-549)	GI50 (A549)	GI50 (OVCAR-4)	GI50 (NCI-H23)	GI50 (SNB-75)	GI50 (786-0)	GI50 (SK-OV-3)	GI50 (SK-MEL-5)	GI50 (MOLT-4)	GI50 (SK-MEL-2)	GI50 (NCI-H460)	GI50 (EKVX)	GI50 (TK-10)	GI50 (SF-268)	GI50 (MDA-N)	GI50 (SK-MEL-28)
COc1cc2ccc1OCc1cccc(n1)COc1ccc(cc1OC)/C=N\c1ccc(cc1)-c1ccc(cc1)/N=C\2	> 100 µM (inactive)	> 100 µM (inactive)	> 100 µM (inactive)	> 100 µM (inactive)	> 100 µM (inactive)	> 100 µM (inactive)	> 100 µM (inactive)	> 100 µM (inactive)	> 100 µM (inactive)	> 100 µM (inactive)	> 100 µM (inactive)	> 100 µM (inactive)	> 100 µM (inactive)	> 100 µM (inactive)	> 100 µM (inactive)	> 100 µM (inactive)	> 100 µM (inactive)	> 100 µM (inactive)	> 100 µM (inactive)	
C1=C2C3=[N+](CCCC3)CC2Cc2ccsc21 (configuration not stated)	> 100 µM (inactive)	> 100 µM (inactive)		> 100 µM (inactive)	81.3 µM (inactive)	25 µM (inactive)	84.3 µM (inactive)	> 100 µM (inactive)	93.8 µM (inactive)	> 100 µM (inactive)	> 100 µM (inactive)	66.5 µM (inactive)	> 100 µM (inactive)	> 100 µM (inactive)	38 µM (inactive)	52.6 µM (inactive)	87.7 µM (inactive)	> 100 µM (inactive)	> 100 µM (inactive)	> 100 µM (inactive)
C=C(Cl)[C@](Cl)(CBr)CC[C@@H](Br)C(C)(C)Cl [HALOMON]	1.59 µM (inactive)	17 µM (inactive)	1.5 µM (inactive)	0.611 µM (active)	1.29 µM (inactive)	2.12 µM (inactive)	1.46 µM (inactive)	11.4 µM (inactive)	0.449 µM (active)	0.147 µM (active)	9.57 µM (inactive)	12.3 µM (inactive)	12.8 µM (inactive)		0.955 µM (active)	3.64 µM (inactive)	1.81 µM (inactive)	0.515 µM (active)	0.959 µM (active)	1.73 µM (inactive)
Cc1nc2ccccc2c(=O)n1NC(=O)c1ccc([N+](=O)[O-])cc1	> 100 µM (inactive)	> 100 µM (inactive)	> 100 µM (inactive)	> 100 µM (inactive)	> 100 µM (inactive)	> 100 µM (inactive)	> 100 µM (inactive)	> 100 µM (inactive)	> 100 µM (inactive)	> 100 µM (inactive)	> 100 µM (inactive)	> 100 µM (inactive)	> 100 µM (inactive)		> 100 µM (inactive)	> 100 µM (inactive)	> 100 µM (inactive)	> 100 µM (inactive)	> 100 µM (inactive)	> 100 µM (inactive)
CN(C)c1ccc(/C=C/c2nc3ccccc3s2)cc1	45.1 µM (inactive)	> 100 µM (inactive)	> 100 µM (inactive)	> 100 µM (inactive)	80 µM (inactive)	> 100 µM (inactive)	> 100 µM (inactive)	> 100 µM (inactive)		> 100 µM (inactive)	> 100 µM (inactive)	> 100 µM (inactive)	> 100 µM (inactive)	> 100 µM (inactive)	> 100 µM (inactive)	> 100 µM (inactive)	> 100 µM (inactive)	> 100 µM (inactive)	> 100 µM (inactive)	> 100 µM (inactive)
Cc1ccccc1-n1c(=O)nc2n(-c3ccc(C(C)(C)C)cc3)c3ccccc3cc-2c1=O	11.3 µM (inactive)	18.8 µM (inactive)	18.1 µM (inactive)	24.7 µM (inactive)	25.7 µM (inactive)	31.3 µM (inactive)	26.5 µM (inactive)	21.7 µM (inactive)	22.3 µM (inactive)	24.4 µM (inactive)		15.1 µM (inactive)	23.8 µM (inactive)	16.7 µM (inactive)	15.3 µM (inactive)	22.4 µM (inactive)	37.7 µM (inactive)	27.5 µM (inactive)	22.6 µM (inactive)	15.3 µM (inactive)
O=C(CN1CCOCC1)CC(O)(C(F)(F)F)C(F)(F)F	> 100 µM (inactive)	> 100 µM (inactive)	67.3 µM (inactive)	35.6 µM (inactive)	> 100 µM (inactive)	> 100 µM (inactive)	> 100 µM (inactive)	33.5 µM (inactive)	38.6 µM (inactive)	> 100 µM (inactive)	> 100 µM (inactive)	47.6 µM (inactive)	37.2 µM (inactive)	97.3 µM (inactive)		> 100 µM (inactive)	> 100 µM (inactive)		> 100 µM (inactive)	> 100 µM (inactive)
COC(=O)[C@H](Cc1c[nH]c2ccccc12)NP(=O)(O)OC[C@H]1O[C@@H](n2cc(C)c(=O)[nH]c2=O)C[C@@H]1N=[N+]=[N-]	> 100 µM (inactive)	> 100 µM (inactive)	> 100 µM (inactive)	> 100 µM (inactive)	> 100 µM (inactive)	> 100 µM (inactive)	> 100 µM (inactive)	> 100 µM (inactive)	> 100 µM (inactive)	> 100 µM (inactive)	> 100 µM (inactive)	> 100 µM (inactive)	> 100 µM (inactive)	> 100 µM (inactive)	> 100 µM (inactive)	> 100 µM (inactive)	> 100 µM (inactive)	> 100 µM (inactive)	> 100 µM (inactive)	
COC(=O)C1c2cc3c(cc2C(OC2OC(C)C(OC)C(C)(OC)C2OC)CC1(C)O)C(=O)c1c(O)cc2c(c1C3=O)OC1OC2(C)C(O)C([N+](C)(C)[O-])C1O (configuration not stated)	0.158 µM (active)		0.146 µM (active)	0.165 µM (active)	0.179 µM (active)	0.227 µM (active)	4.09 µM (inactive)	0.105 µM (active)	0.179 µM (active)	0.111 µM (active)	1.64 µM (inactive)	0.0776 µM (active)	0.416 µM (active)	0.137 µM (active)	0.0644 µM (active)	0.658 µM (active)	2.83 µM (inactive)	0.0891 µM (active)	0.0512 µM (active)	0.195 µM (active)
O=C(O)c1cnc(-n2[nH]c3c(c2=O)CCCC3)[nH]c1=O	> 100 µM (inactive)	> 100 µM (inactive)		> 100 µM (inactive)	> 100 µM (inactive)	> 100 µM (inactive)	> 100 µM (inactive)	> 100 µM (inactive)		> 100 µM (inactive)	> 100 µM (inactive)	> 100 µM (inactive)	> 100 µM (inactive)	> 100 µM (inactive)	> 100 µM (inactive)	> 100 µM (inactive)	> 100 µM (inactive)	> 100 µM (inactive)	> 100 µM (inactive)	> 100 µM (inactive)
CC(=O)Oc1c(C)c2c(O)c3c1C1=C(OCOC1=C(C)C3=O)/C(C)=C/C(C)(O)C(O)C(C)C(O)C1C(=O)OC(C(C)C1O)C(C)(O)/C=C\C=C(C)C(=O)N2 (configuration not stated)	> 100 µM (inactive)	18.1 µM (inactive)	69.5 µM (inactive)	25.7 µM (inactive)	19.7 µM (inactive)	76 µM (inactive)		50.5 µM (inactive)	24 µM (inactive)	53.7 µM (inactive)	35.5 µM (inactive)	32.4 µM (inactive)	36.1 µM (inactive)	34.4 µM (inactive)	> 100 µM (inactive)	10.7 µM (inactive)		31.8 µM (inactive)	> 100 µM (inactive)	81.5 µM (inactive)
O=P1(c2ccccc2)c2ccccc2CCc2ccccc21	57.7 µM (inactive)	> 100 µM (inactive)	> 100 µM (inactive)	> 100 µM (inactive)	99.5 µM (inactive)	86.5 µM (inactive)		> 100 µM (inactive)	43.8 µM (inactive)	> 100 µM (inactive)	58.2 µM (inactive)	44.9 µM (inactive)	33.6 µM (inactive)	49.3 µM (inactive)		66.4 µM (inactive)	> 100 µM (inactive)	95.9 µM (inactive)	38.7 µM (inactive)	> 100 µM (inactive)
N#Cc1c(N)nc2c(/N=N\c3ccccc3)c(N)nn2c1Nc1ccccc1	16.4 µM (inactive)	25.7 µM (inactive)	4.41 µM (inactive)	1.06 µM (active)	23.9 µM (inactive)	21.1 µM (inactive)	14.9 µM (inactive)	4.55 µM (inactive)	34.3 µM (inactive)	18.6 µM (inactive)		14.9 µM (inactive)	3.24 µM (inactive)	7.91 µM (inactive)	10.1 µM (inactive)	5.37 µM (inactive)	22.3 µM (inactive)	26.7 µM (inactive)	15.6 µM (inactive)	5.51 µM (inactive)
Cc1c2c(OCC3CCCCO3)nn(C)c(=O)c2c(C)n1-c1ccccc1 (configuration not stated)	18.3 µM (inactive)	23.4 µM (inactive)	15.3 µM (inactive)	21.2 µM (inactive)	19.7 µM (inactive)	17.5 µM (inactive)	15.8 µM (inactive)	20 µM (inactive)	13 µM (inactive)	17.2 µM (inactive)	18.3 µM (inactive)	15.1 µM (inactive)	29 µM (inactive)	24.1 µM (inactive)	14.7 µM (inactive)	17.1 µM (inactive)	20.6 µM (inactive)	16.1 µM (inactive)	19.5 µM (inactive)	
